Assay results as given in PubChem BioAssay AID1963965 (Molecular Pharmacology Branch, DTP, NCI, 2024).
Blank lines part the entries; values can stand above or below the compound they belong to.

Tested on: 996289-038-R-J1-PDC spheroid viability
Experiment: Anticancer human tumor 996289-038-R-J1-PDC patient-derived colon adenocarcinoma cell line growth inhibition [PI3K]
Conditions: spheroids with HUVEC and MSC; for viability, T/C: stronger effect = lower value
Outline: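 Combination activity was assessed by viability in multicellular tumor spheroids carrying HUVEC and MSC components. Agents were tested with PI3K inhibitors from a Cmax-based top dose (or 10 microM) downward in half-log increments.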

[1] = curve of first compound, second compound 0.0316 µM
[2] = curve of first compound, second compound 0.1 µM
[3] = curve of first compound, second compound 0.316 µM
[4] = curve of first compound, second compound 1 µM
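Note: spheroids exposed to compounds for seven days before viability read.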
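Throughout, for viability, T/C: luminescence used as a proxy for viable cell amount; percent viability relative to DMSO vehicle control as 100%.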

IC50 [1]: > 10000 nM | IC50 [2]: > 10000 nM | IC50 [3]: > 10000 nM | IC50 [4]: > 10000 nM | IC50 (curve of first compound, second compound 3.16 µM): > 10000 nM | IC50 (curve of first compound, second compound 10 µM): < 31.6 nM
SMILES: C[C@@H](NC(=O)c1ncnc(N)c1Cl)c1ncc(C(=O)Nc2cc(C(F)(F)F)c(Cl)cn2)s1 + Cc1nc(NC(=O)N2CCCC2C(N)=O)sc1-c1ccnc(C(C)(C)C(F)(F)F)c1
viability, T/C (second compound 0.0316 µM, first compound 0.0316 µM): 89.5% | viability, T/C (second compound 0.0316 µM, first compound 0.1 µM): 89.8% | viability, T/C (second compound 0.0316 µM, first compound 0.316 µM): 124% | viability, T/C (second compound 0.0316 µM, first compound 1 µM): 114% | viability, T/C (second compound 0.0316 µM, first compound 3.16 µM): 113% | viability, T/C (second compound 0.0316 µM, first compound 10 µM): 128% | viability, T/C (second compound 0.1 µM, first compound 0.0316 µM): 99.3% | viability, T/C (second compound 0.1 µM, first compound 0.1 µM): 100% | viability, T/C (second compound 0.1 µM, first compound 0.316 µM): 103% | viability, T/C (second compound 0.1 µM, first compound 1 µM): 104% | viability, T/C (second compound 0.1 µM, first compound 3.16 µM): 109% | viability, T/C (second compound 0.1 µM, first compound 10 µM): 105% | viability, T/C (second compound 0.316 µM, first compound 0.0316 µM): 80.5% | viability, T/C (second compound 0.316 µM, first compound 0.1 µM): 88.6% | viability, T/C (second compound 0.316 µM, first compound 0.316 µM): 90.8% | viability, T/C (second compound 0.316 µM, first compound 1 µM): 93.9% | viability, T/C (second compound 0.316 µM, first compound 3.16 µM): 109% | viability, T/C (second compound 0.316 µM, first compound 10 µM): 92.4% | viability, T/C (second compound 1 µM, first compound 0.0316 µM): 64.3% | viability, T/C (second compound 1 µM, first compound 0.1 µM): 72.8% | viability, T/C (second compound 1 µM, first compound 0.316 µM): 73.5% | viability, T/C (second compound 1 µM, first compound 1 µM): 81.1% | viability, T/C (second compound 1 µM, first compound 3.16 µM): 102% | viability, T/C (second compound 1 µM, first compound 10 µM): 70.8% | viability, T/C (second compound 3.16 µM, first compound 0.0316 µM): 62.1% | viability, T/C (second compound 3.16 µM, first compound 0.1 µM): 68.3% | viability, T/C (second compound 3.16 µM, first compound 0.316 µM): 60.3% | viability, T/C (second compound 3.16 µM, first compound 1 µM): 67.7% | viability, T/C (second compound 3.16 µM, first compound 3.16 µM): 68.7% | viability, T/C (second compound 3.16 µM, first compound 10 µM): 54.3% | viability, T/C (second compound 10 µM, first compound 0.0316 µM): 40.6% | viability, T/C (second compound 10 µM, first compound 0.1 µM): 47.1% | viability, T/C (second compound 10 µM, first compound 0.316 µM): 54.3% | viability, T/C (second compound 10 µM, first compound 1 µM): 44.3% | viability, T/C (second compound 10 µM, first compound 3.16 µM): 46.9% | viability, T/C (second compound 10 µM, first compound 10 µM): 39.9%

IC50 (curve of first compound, second compound 0.00316 µM): 147 nM | IC50 (curve of first compound, second compound 0.01 µM): 74 nM | IC50 [1]: 49.6 nM | IC50 [2]: 12.7 nM | IC50 [3]: < 9.49 nM | IC50 [4]: < 9.49 nM
SMILES: Cn1cnc2c(F)c(Nc3ccc(Br)cc3Cl)c(C(=O)NOCCO)cc21 + COc1c(OCCCN2CCOCC2)ccc2c3n(c(=NC(=O)c4cnc(N)nc4)nc12)CCN3
viability, T/C (second compound 0.00316 µM, first compound 0.00949 µM): 85.8% | viability, T/C (second compound 0.00316 µM, first compound 0.03 µM): 64.4% | viability, T/C (second compound 0.00316 µM, first compound 0.0949 µM): 62.2% | viability, T/C (second compound 0.00316 µM, first compound 0.3 µM): 38.7% | viability, T/C (second compound 0.00316 µM, first compound 0.949 µM): 28.2% | viability, T/C (second compound 0.00316 µM, first compound 3 µM): 20.1% | viability, T/C (second compound 0.01 µM, first compound 0.00949 µM): 79.3% | viability, T/C (second compound 0.01 µM, first compound 0.03 µM): 65.1% | viability, T/C (second compound 0.01 µM, first compound 0.0949 µM): 45.5% | viability, T/C (second compound 0.01 µM, first compound 0.3 µM): 29.7% | viability, T/C (second compound 0.01 µM, first compound 0.949 µM): 28.5% | viability, T/C (second compound 0.01 µM, first compound 3 µM): 16.8% | viability, T/C (second compound 0.0316 µM, first compound 0.00949 µM): 71.3% | viability, T/C (second compound 0.0316 µM, first compound 0.03 µM): 59.1% | viability, T/C (second compound 0.0316 µM, first compound 0.0949 µM): 38.2% | viability, T/C (second compound 0.0316 µM, first compound 0.3 µM): 28.8% | viability, T/C (second compound 0.0316 µM, first compound 0.949 µM): 19.2% | viability, T/C (second compound 0.0316 µM, first compound 3 µM): 12.5% | viability, T/C (second compound 0.1 µM, first compound 0.00949 µM): 54.1% | viability, T/C (second compound 0.1 µM, first compound 0.03 µM): 39.2% | viability, T/C (second compound 0.1 µM, first compound 0.0949 µM): 27.6% | viability, T/C (second compound 0.1 µM, first compound 0.3 µM): 18.6% | viability, T/C (second compound 0.1 µM, first compound 0.949 µM): 12.5% | viability, T/C (second compound 0.1 µM, first compound 3 µM): 5.57% | viability, T/C (second compound 0.316 µM, first compound 0.00949 µM): 34.1% | viability, T/C (second compound 0.316 µM, first compound 0.03 µM): 24.5% | viability, T/C (second compound 0.316 µM, first compound 0.0949 µM): 15.1% | viability, T/C (second compound 0.316 µM, first compound 0.3 µM): 10.6% | viability, T/C (second compound 0.316 µM, first compound 0.949 µM): 6.3% | viability, T/C (second compound 0.316 µM, first compound 3 µM): 4.03% | viability, T/C (second compound 1 µM, first compound 0.00949 µM): 15.6% | viability, T/C (second compound 1 µM, first compound 0.03 µM): 14.3% | viability, T/C (second compound 1 µM, first compound 0.0949 µM): 9.32% | viability, T/C (second compound 1 µM, first compound 0.3 µM): 5.03% | viability, T/C (second compound 1 µM, first compound 0.949 µM): 4.84% | viability, T/C (second compound 1 µM, first compound 3 µM): 2.93%

IC50 (compound alone, run of 06/12/2023): > 1000 nM
SMILES: CC(Nc1ccc2c(c1)OCCn1cc(N3C(=O)OCC3C(F)F)nc1-2)C(N)=O (stereo not given)
viability, T/C (compound 0.00316 µM): 105% [middle of 8 runs] | viability, T/C (compound 0.0316 µM): 95.4% [middle of 8 runs] | viability, T/C (compound 0.1 µM): 90.3% [middle of 8 runs] | viability, T/C (compound 0.316 µM): 80% [middle of 8 runs] | viability, T/C (compound 1 µM): 67.5% [middle of 8 runs]
